Measurements taken from publication PMC10434001, “Glycosylated, Lipid-Binding, CDR-Like Domains of SARS-CoV-2 ORF8 Indicate Unique Sites of Immune Regulation” (Microbiology Spectrum, 2023).

How the values were obtained:
[1] = tested on: glycosylated ORF8 binding to immune monocytes; assay: Immune cell binding assay: peptide inhibition of glycosylated ORF8 binding to monocytes; format: cell-based; details: 50 μM peptide with 5 μM FITC-labeled ORF8; human monocytes; 4 h at 37°C; flow cytometry; Fig. 6C and D
[2] = tested on: deglycosylated ORF8 binding to immune monocytes; assay: Immune cell binding assay: peptide inhibition of deglycosylated ORF8 binding to monocytes; format: cell-based; details: 50 μM peptide with 5 μM FITC-labeled deglycosylated ORF8; human monocytes; 4 h at 37°C; flow cytometry; Fig. 6E and F
[3] = tested on: human immune monocytes (from PBMC); assay: Binding of ORF8 protein forms to immune monocytes (flow cytometry); format: cell-based
[4] = after deglycosylation (PNGase F); observation during the experiments

With “TNERLCVRFE [P3, 10-residue peptide derived from IL17RA (aa89-98) designed against ORF8]” the “inhibition of glycosylated ORF8 binding to immune cells” value [1] was “no significant inhibitory effect” and the “inhibition of deglycosylated ORF8 binding to immune monocytes” value [2] was “significantly inhibited”.

With “deglycosylated ORF8: ORF8 protein treated with PNGase F enzyme overnight” the “binding to immune cells relative to glycosylated ORF8” value ([3]; FITC-labeled ORF8, human monocytes, flow cytometry, Fig. 6A and B) was 2 fold.

For “delipidated ORF8: ORF8 protein treated with 0.5% Triton X-100 overnight”, the “binding to human immune cells compared with ORF8 with lipid modifications” value ([3]; co-incubated with human PBMC cells, lipid removed with 0.5% Triton X-100 overnight, Fig. 4G and H) was “higher percentage of binding”.

For “glycosylated ORF8: recombinant SARS-CoV-2 ORF8 (residues 16–121, MBP/His tag) expressed in 293F cells, glycosylated at N78”, the “solubility of ORF8” value [4] was “deteriorated” and the “binding to immune cells” value ([3]; FITC-labeled ORF8, 5 μM, human monocytes, flow cytometry, Fig. 6A and B) was “weak binding”.
